Entries after “also recorded” stand apart in the source; their conditions may differ. Where a name gives a salt, the structure may show the parent alone. Read-outs that look alike come from different tables or passages of the source.
Key:
Pea5-HT1 = tested on: Pea5-HT1; set-up: method as in PMID 20233210; conditions: cited from earlier work
Trica5-HT1 [1] = target: T1, Trica5-HT1 (Tribolium castaneum, UniProt R9ULB8); experiment: Aequorin-luminescence assay, agonist activation of Trica5-HT1 in CHO-WTA11 cells (apoaequorin + Gα16); assay type: cell-based; conditions: for response at 100 µM agonist: Figure 3A; for agonist behaviour: dose-response 1 pM to 1 mM; for response at concentrations ≤100 µM: results not shown
Method: (§1) General binding studies were performed in Chinese hamster ovary (CHO) WTA11 cells stably coexpressing apoaequorin and the promiscuous Gα16. This allowed us to measure the pharmacology independent of the downstream signaling. CHO-PAM28 cells stably expressing apoaequorin, but not the promiscuous Gα16, and human embryonic kidney cells (HEK) 293 cells were used to measure downstream signaling via Ca^2+ and cAMP, respectively. CHO cell lines were provided by Prof. Marc Parmentier (University of Brussels, Belgium) and Dr. Michel Detheux (Euroscreen S.A., Belgium). HEK293 cells were a gift from Prof. Arnd Baumann (Research Centre Jülich, Germany.
(§2) Cells were cultured in vitro as monolayers at 37°C, 5% CO2 and high relative humidity, and subcultivated twice a week. For transfection of CHO cells, 2.5 ml Opti-MEM®I (Invitrogen), 5 µg plasmid DNA and 12.5 µl Plus^TMreagent (Invitrogen) were mixed, stored at room temperature for 5 min and next repleted with 30 µl Lipofectamine™LTX (Invitrogen). After 30 min incubation at room temperature, this transfection mixture was added dropwise to the cells together with 5 ml medium. HEK293 cells were cotransfected with receptor construct (4 µg) and CRE-luciferase construct (2 µg), consisting of the open reading frame of the reporter gene, luciferase, downstream of a multimerized cAMP-response-element (CRE6x), [39]. All transfections were performed in T75 flasks with a confluency of about 60 percent. Cells were grown overnight, after which 15 ml of medium was added for an additional overnight incubation period.
(§3) The transfected CHO cells were detached with phosphate buffered saline (PBS) containing 0.2% EDTA and collected in DMEM/F-12 (without phenol red, with L-glutamine and 10 mM HEPES) (Gibco). The amount of viable cells was determined using the NucleoCounter NC-100+TM (Chemometic). Cells were pelleted for 4 min at 800 rpm at room temperature and resuspended in BSA-medium (DMEM/F12 without phenol red, with L-glutamine and 10 mM HEPES, supplemented with 0.1% bovine serum albumin) to a concentration of 5×10^6 cells/ml. Coelenterazine H (Invitrogen) was added to a final concentration of 5 µM, and cells were gently shaken for 4 h at room temperature in the dark. After a 10-fold dilution in BSA-medium, cells were incubated another 30 min. The pharmacological ligands were dissolved in BSA-medium. For agonists, 50 µl containing the final ligand concentration was added to appropriate wells of a 96-well plate. For antagonists, 25 µl of the antagonist solution was supplemented with 25 µl of a 5-HT solution. Receptor activity was measured as the light emission after adding 50 µl of the cell suspension. Light emission was measured for 30 s using a Mithras LB940 (Berthold Technologies). Subsequently, cells were lysed with Triton X-100 (0.1% in BSA-medium) and light emission was recorded for another 8 s. BSA-medium was used as a negative control. Light emission from each well was calculated relative to the total response (ligand+Triton X-100) using the output file of Mikrowin2000 software (Mikrotek). Further analysis was done in Graphpad Prism 5.
In order to pharmacologically characterize Trica5-HT1, we used CHO-WTA11 cells stably expressing apoaequorin and the promiscuous Gα16 subunit. […] The dose-response relationship for 5-HT and these synthetic agonists was examined at concentrations ranging from 1 pM to 1 mM (Figure 3B). […] Since the efficacy achieved by any agonist depends on the number of receptors expressed, we measured a dose-response curve for 5-HT in every experiment and normalized all agonist effects to the maximum 5-HT response, set at 100% (Figure 3B).

Am5-HT1 = tested on: Am5-HT1; set-up: method as in PMID 20349263; conditions: cited from earlier work
Trica5-HT1 [2] = target: T1, Trica5-HT1; experiment: Aequorin-luminescence assay, antagonist inhibition of 5-HT mediated activation of Trica5-HT1 in CHO-WTA11 cells; assay type: cell-based; conditions: for inhibition of 5-HT induced responses (words): antagonist 10 nM to 1 mM; for logIC50 (mean ± SEM) / IC50: CHO-WTA11 cells; for nature of inhibition: 5-HT dose-response in presence of different antagonist concentrations; for inhibition of activation by 100 nM 5-HT at high concentrations (≥1 mM): antagonist ≥1 mM
Method: as §1, §2, §3
Potential antagonists were tested by simultaneously applying 5-HT (100 nM) and a high dose of antagonist (100 µM) to Trica5-HT1 expressing cells (Figure 4A). In addition, the dose-dependence of the antagonistic effects were measured with antagonist concentrations ranging from 10 nM to 1 mM (Figure 4B). […] We used the Gaddum/Schild plot to compare the inhibitory potencies of the antagonists by their pA2 values (i.e. the […] of the concentration of antagonist that doubles the amount of 5-HT required for obtaining the same effect).

[3] = receptor activation in CHO-WTA11 cells, given as negative log values
[4] = receptor activation in CHO-WTA11 cells, read-out: EC50
[5] = inhibition of 5-HT (100 nM) mediated activation, given as negative log values
[6] = inhibition of 5-HT (100 nM) mediated activation, read-out: IC50
[7] = inhibition of 5-HT (100 nM) mediated activation
[8] = logIC50 (mean ± SEM), inhibition of 5-HT (100 nM) mediated activation, given as negative log values
[9] = IC50, inhibition of 5-HT (100 nM) mediated activation

T1 sequence (R9ULB8 entry or part of it): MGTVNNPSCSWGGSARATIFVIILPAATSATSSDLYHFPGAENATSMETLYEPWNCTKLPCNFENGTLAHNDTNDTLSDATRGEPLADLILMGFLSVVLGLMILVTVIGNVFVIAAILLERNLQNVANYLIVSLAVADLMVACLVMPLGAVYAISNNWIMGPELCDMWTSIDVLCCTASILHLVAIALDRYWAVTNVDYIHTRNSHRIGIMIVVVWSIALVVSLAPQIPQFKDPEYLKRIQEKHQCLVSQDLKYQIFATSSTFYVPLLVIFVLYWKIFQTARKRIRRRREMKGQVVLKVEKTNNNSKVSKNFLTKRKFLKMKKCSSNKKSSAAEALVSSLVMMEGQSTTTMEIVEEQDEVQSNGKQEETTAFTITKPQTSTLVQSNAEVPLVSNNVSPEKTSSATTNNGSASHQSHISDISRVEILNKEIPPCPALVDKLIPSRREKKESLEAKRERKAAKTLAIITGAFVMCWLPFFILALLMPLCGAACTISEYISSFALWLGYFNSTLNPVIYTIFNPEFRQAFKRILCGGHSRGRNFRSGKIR

CCCN(CCC)C1CCc2cccc(O)c2C1 (racemic) [8-OH-DPAT, (±)-8-hydroxy-2-(dipropylamino)tetralin hydrobromide]
agonist behaviour (Pea5-HT1): poor agonist | concentrations at which responses were evoked (Trica5-HT1 [1]; CHO-WTA11 cells): ≥ 100 µM | response at 100 µM agonist (Trica5-HT1 [1]; CHO-WTA11 cells): Significant responses | agonist behaviour (Trica5-HT1 [1]; CHO-WTA11 cells): very poor response | EC50 (Trica5-HT1 [1]; EC50, receptor activation in CHO-WTA11 cells): 551 µM | EC50 (Trica5-HT1 [1]; logEC50 (mean ± SEM), receptor activation in CHO-WTA11 cells, given as negative log values): 550 µM | agonist behaviour (Am5-HT1): poor agonist

NCC(O)c1ccc(O)cc1 (racemic) [octopamine, DL-octopamine hydrochloride]
response at concentrations ≤100 µM (Trica5-HT1 [1]; CHO-WTA11 cells): did not generate any detectable responses

NCCc1c[nH]c2ccc(C(N)=O)cc12.O=C(O)/C=C\C(=O)O [5-CT, 5-carboxamidotryptamine maleate]
response at 100 µM agonist (Trica5-HT1 [1]; CHO-WTA11 cells): Significant responses | agonist behaviour (Trica5-HT1 [1]; CHO-WTA11 cells): partial agonists | logEC50 (mean ± SEM) (Trica5-HT1 [1]; [3]): −4.61±0.17 | EC50 (Trica5-HT1 [1]; [4]): 24.7 µM

COc1ccc2[nH]cc(CCN)c2c1 [5-MT, 5-methoxytryptamine]
response at 100 µM agonist (Trica5-HT1 [1]; CHO-WTA11 cells): Significant responses | agonist behaviour (Trica5-HT1 [1]; CHO-WTA11 cells): partial agonists | EC50 (Trica5-HT1 [1]; receptor activation in CHO-WTA11 cells, given as negative log values, read-out: logEC50 (mean ± SEM) (converted)): 91.2 µM | EC50 (Trica5-HT1 [1]; [4]): 91.8 µM

CC1CCN(CC[C@H]2CCCN2S(=O)(=O)c2cccc(O)c2)CC1.Cl [SB-269970, SB-269970 hydrochloride]
inhibition of 5-HT induced responses (words) (Trica5-HT1 [2]; 5-HT 100 nM): Moderate inhibition; also recorded: more effective inhibition | logIC50 (mean ± SEM) (Trica5-HT1 [2]; [5]): −3.69±0.25 | IC50 (Trica5-HT1 [2]; [6]): 205 µM

COc1ccccc1N1CCN(CCN(C(=O)C2CCCCC2)c2ccccn2)CC1 [WAY-100635, N-{2-[4-(2-methoxyphenyl)-1-piperazinyl]-ethyl}-N-(2-pyridinyl) cyclohexanecarboxamide]
inhibition of 5-HT induced responses (words) (Trica5-HT1 [2]; 5-HT 100 nM): no clear dose-dependent effect | IC50 (Trica5-HT1 [2]; [7]): no clear dose-dependence of inhibition | logIC50 (mean ± SEM) (Trica5-HT1 [2]; [5]): no clear dose-dependence of inhibition | inhibition of agonist stimulated receptor (Pea5-HT1): effective inhibition | antagonist behaviour (Am5-HT1): partial antagonist

CC(C)(C)[C@]1(O)CCN2C[C@H]3c4ccccc4CCc4cccc(c43)[C@@H]2C1 [butaclamol, (+)-butaclamol hydrochloride]
agonistic effects at high concentration (Trica5-HT1 [2]; 100 µM, with 5-HT 100 nM): some agonistic effects | inhibition of 5-HT induced responses (words) (Trica5-HT1 [2]; 5-HT 100 nM): no detectable inhibition | IC50 (Trica5-HT1 [2]; [8]): 204 µM

Cl.NCCc1ccc(O)c(O)c1.NCCc1ccc(O)c(O)c1 [dopamine, 3-hydroxytyramine (dopamine) hydrochloride]
response at concentrations ≤100 µM (Trica5-HT1 [1]; CHO-WTA11 cells): did not generate any detectable responses

O=C(c1ccc(F)cc1)C1CCN(CCn2c(=O)[nH]c3ccccc3c2=O)CC1 [ketanserin, ketanserin (+)-tartrate]
inhibition of 5-HT induced responses (words) (Trica5-HT1 [2]; 5-HT 100 nM): no detectable inhibition | IC50 (Trica5-HT1 [2]; [7]): no inhibition | logIC50 (mean ± SEM) (Trica5-HT1 [2]; [5]): no inhibition

CSc1ccc2c(c1)C(N1CCN(C)CC1)Cc1ccccc1S2 (stereo not drawn) [methiothepin, methiothepin mesylate]
inhibition of 5-HT induced responses (words) (Trica5-HT1 [2]; 5-HT 100 nM): effective dose-dependent inhibition | inhibition of 5-HT induced responses (words) (Trica5-HT1 [2]; 5-HT 100 nM, listed as Methiothepin): dose-dependent inhibition | nature of inhibition (Trica5-HT1 [2]): competitive antagonists | Kb (Trica5-HT1 [2]; Gaddum/Schild plot, 5-HT dose-response in presence of 10 nM to 1 mM antagonist, read-out: pA2 (± SEM) (converted)): 0.676 µM | inhibition of activation by 100 nM 5-HT at high concentrations (≥1 mM) (Trica5-HT1 [2]): completely inhibited | IC50 (Trica5-HT1 [2]; inhibition of 5-HT (100 nM) mediated activation, given as negative log values, read-out: logIC50 (mean ± SEM) (converted)): 16.2 µM | IC50 (Trica5-HT1 [2]; [6]): 16.4 µM

CC[C@@H](CO)NC(=O)[C@@H]1C=C2c3cccc4c3c(cn4C)C[C@H]2N(C)C1 [methysergide, methysergide maleate]
inhibition of 5-HT induced responses (words) (Trica5-HT1 [2]; 5-HT 100 nM): effective dose-dependent inhibition | nature of inhibition (Trica5-HT1 [2]): competitive antagonists | IC50 (Trica5-HT1 [2]; [9]): 34 µM | inhibition of activation by 100 nM 5-HT at high concentrations (≥1 mM) (Trica5-HT1 [2]): completely inhibited | IC50 (Trica5-HT1 [2]; [8]): 33.9 µM

COc1cc2nc(N3CCN(C(=O)c4ccco4)CC3)nc(N)c2cc1OC [prazosin, prazosin hydrochloride]
inhibition of 5-HT induced responses (words) (Trica5-HT1 [2]; 5-HT 100 nM): effective dose-dependent inhibition | nature of inhibition (Trica5-HT1 [2]): competitive antagonists | IC50 (Trica5-HT1 [2]; [9]): 1.39 µM | inhibition of activation by 100 nM 5-HT at high concentrations (≥1 mM) (Trica5-HT1 [2]): completely inhibited | IC50 (Trica5-HT1 [2]; [8]): 1.38 µM

NCCc1ccc(O)cc1 [tyramine, tyramine hydrochloride]
response at concentrations ≤100 µM (Trica5-HT1 [1]; CHO-WTA11 cells): did not generate any detectable responses

COC(=O)[C@@H]1[C@H]2C[C@H]3c4[nH]c5ccccc5c4CCN3C[C@@H]2CC[C@@H]1O [yohimbin, yohimbine hydrochloride]
inhibition (Trica5-HT1 [2]; 5-HT 100 nM, even at concentrations up to 100 µM): about 30%

CC(N)Cc1c[nH]c2ccc(O)cc12.O=C(O)/C=C\C(=O)O (stereo not drawn) [αm-5-HT, α-methylserotonin maleate]
response at 100 µM agonist (Trica5-HT1 [1]; CHO-WTA11 cells): Significant responses | fold less potent than 5-HT (Trica5-HT1 [1]; EC50 compared with 5-HT, CHO-WTA11 cells): more than 100 fold | logEC50 (mean ± SEM) (Trica5-HT1 [1]; [3]): −4.97±0.18 | EC50 (Trica5-HT1 [1]; [4]): 10.7 µM

Reference: article PMC3669024, “Pharmacological Characterization of a 5-HT1-Type Serotonin Receptor in the Red Flour Beetle, Tribolium castaneum” (PLoS ONE, 2013)
